Data published in PubChem BioAssay AID1963980 (Molecular Pharmacology Branch, DTP, NCI, 2024).

Each molecule was assayed on 475296-252-R-J1-PDC spheroid viability (assay: Anticancer human tumor 475296-252-R-J1-PDC patient-derived rectal carcinoma cell line growth inhibition [PI3K]). Details: second compound 10 µM; first compound 0.0316 µM; stronger effect = lower value; spheroids with HUVEC and MSC.
Outline: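 Viability of mixed-cell spheroids was determined after exposure to pairwise combinations, one partner being inavolisib, alpelisib, duvelisib or copanlisib. Highest tested concentration matched clinical Cmax where known and 10 microM where not, descending in half-log steps.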
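Also: spheroids exposed to agents for seven days before readout.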

Row | Compound | viability, T/C [%]
1 | Cn1ncc(Cl)c1-c1cc(C(=O)NC(CN)Cc2cccc(F)c2)sc1Cl (configuration not stated) + CC(Nc1ncnc2nc[nH]c12)c1cc2cccc(Cl)c2c(=O)n1-c1ccccc1 | 92.3
2 | Cn1nccc1Nc1nccc(-c2ccn(C(CO)c3ccc(Cl)c(F)c3)c(=O)c2)n1 (configuration not stated) + CC(Nc1ncnc2nc[nH]c12)c1cc2cccc(Cl)c2c(=O)n1-c1ccccc1 | 90.9

Same assay, conditions: second compound 10 µM; first compound 0.1 µM; stronger effect = lower value; spheroids with HUVEC and MSC

Row | Compound | viability, T/C [%]
3 | C#Cc1c(F)ccc2cc(O)cc(-c3ncc4c(N5CC6CCC(C5)N6)nc(OCC56CCCN5CC(F)C6)nc4c3F)c12 (configuration not stated) + CC(Nc1ncnc2nc[nH]c12)c1cc2cccc(Cl)c2c(=O)n1-c1ccccc1 | 81.6
4 | C=CC(=O)N1CCN(c2nc(=O)n(-c3c(C)ccnc3C(C)C)c3nc(-c4c(O)cccc4F)c(F)cc23)C(C)C1 (configuration not stated) + CC(Nc1ncnc2nc[nH]c12)c1cc2cccc(Cl)c2c(=O)n1-c1ccccc1 | 91.9
5 | CC(Cn1ccc(-c2ccc(C#N)c(Cl)c2)n1)NC(=O)c1cc(C(C)O)[nH]n1 (configuration not stated) + CC(Nc1ncnc2nc[nH]c12)c1cc2cccc(Cl)c2c(=O)n1-c1ccccc1 | 99.2
6 | Cn1ncc(Cl)c1-c1cc(C(=O)NC(CN)Cc2cccc(F)c2)sc1Cl (configuration not stated) + CC(Nc1ncnc2nc[nH]c12)c1cc2cccc(Cl)c2c(=O)n1-c1ccccc1 | 77
7 | Cn1nccc1Nc1nccc(-c2ccn(C(CO)c3ccc(Cl)c(F)c3)c(=O)c2)n1 (configuration not stated) + CC(Nc1ncnc2nc[nH]c12)c1cc2cccc(Cl)c2c(=O)n1-c1ccccc1 | 80.6

Same assay, conditions: second compound 10 µM; first compound 0.316 µM; stronger effect = lower value; spheroids with HUVEC and MSC

Row | Compound | viability, T/C [%]
8 | C#Cc1c(F)ccc2cc(O)cc(-c3ncc4c(N5CC6CCC(C5)N6)nc(OCC56CCCN5CC(F)C6)nc4c3F)c12 (configuration not stated) + CC(Nc1ncnc2nc[nH]c12)c1cc2cccc(Cl)c2c(=O)n1-c1ccccc1 | 68.4
9 | C=CC(=O)N1CCN(c2nc(=O)n(-c3c(C)ccnc3C(C)C)c3nc(-c4c(O)cccc4F)c(F)cc23)C(C)C1 (configuration not stated) + CC(Nc1ncnc2nc[nH]c12)c1cc2cccc(Cl)c2c(=O)n1-c1ccccc1 | 86.9
10 | CC(Cn1ccc(-c2ccc(C#N)c(Cl)c2)n1)NC(=O)c1cc(C(C)O)[nH]n1 (configuration not stated) + CC(Nc1ncnc2nc[nH]c12)c1cc2cccc(Cl)c2c(=O)n1-c1ccccc1 | 104
11 | Cn1ncc(Cl)c1-c1cc(C(=O)NC(CN)Cc2cccc(F)c2)sc1Cl (configuration not stated) + CC(Nc1ncnc2nc[nH]c12)c1cc2cccc(Cl)c2c(=O)n1-c1ccccc1 | 60.5
12 | Cn1nccc1Nc1nccc(-c2ccn(C(CO)c3ccc(Cl)c(F)c3)c(=O)c2)n1 (configuration not stated) + CC(Nc1ncnc2nc[nH]c12)c1cc2cccc(Cl)c2c(=O)n1-c1ccccc1 | 91.2

Same assay, conditions: second compound 10 µM; first compound 1 µM; stronger effect = lower value; spheroids with HUVEC and MSC

Row | Compound | viability, T/C [%]
13 | C#Cc1c(F)ccc2cc(O)cc(-c3ncc4c(N5CC6CCC(C5)N6)nc(OCC56CCCN5CC(F)C6)nc4c3F)c12 (configuration not stated) + CC(Nc1ncnc2nc[nH]c12)c1cc2cccc(Cl)c2c(=O)n1-c1ccccc1 | 55.4
14 | C=CC(=O)N1CCN(c2nc(=O)n(-c3c(C)ccnc3C(C)C)c3nc(-c4c(O)cccc4F)c(F)cc23)C(C)C1 (configuration not stated) + CC(Nc1ncnc2nc[nH]c12)c1cc2cccc(Cl)c2c(=O)n1-c1ccccc1 | 80.7
15 | CC(Cn1ccc(-c2ccc(C#N)c(Cl)c2)n1)NC(=O)c1cc(C(C)O)[nH]n1 (configuration not stated) + CC(Nc1ncnc2nc[nH]c12)c1cc2cccc(Cl)c2c(=O)n1-c1ccccc1 | 92.3
16 | Cn1ncc(Cl)c1-c1cc(C(=O)NC(CN)Cc2cccc(F)c2)sc1Cl (configuration not stated) + CC(Nc1ncnc2nc[nH]c12)c1cc2cccc(Cl)c2c(=O)n1-c1ccccc1 | 58.8
17 | Cn1nccc1Nc1nccc(-c2ccn(C(CO)c3ccc(Cl)c(F)c3)c(=O)c2)n1 (configuration not stated) + CC(Nc1ncnc2nc[nH]c12)c1cc2cccc(Cl)c2c(=O)n1-c1ccccc1 | 83.6

Same assay, conditions: second compound 10 µM; first compound 3.16 µM; stronger effect = lower value; spheroids with HUVEC and MSC

Row | Compound | viability, T/C [%]
18 | C#Cc1c(F)ccc2cc(O)cc(-c3ncc4c(N5CC6CCC(C5)N6)nc(OCC56CCCN5CC(F)C6)nc4c3F)c12 (configuration not stated) + CC(Nc1ncnc2nc[nH]c12)c1cc2cccc(Cl)c2c(=O)n1-c1ccccc1 | 45.3
19 | C=CC(=O)N1CCN(c2nc(=O)n(-c3c(C)ccnc3C(C)C)c3nc(-c4c(O)cccc4F)c(F)cc23)C(C)C1 (configuration not stated) + CC(Nc1ncnc2nc[nH]c12)c1cc2cccc(Cl)c2c(=O)n1-c1ccccc1 | 95.8
20 | CC(Cn1ccc(-c2ccc(C#N)c(Cl)c2)n1)NC(=O)c1cc(C(C)O)[nH]n1 (configuration not stated) + CC(Nc1ncnc2nc[nH]c12)c1cc2cccc(Cl)c2c(=O)n1-c1ccccc1 | 95.1
21 | Cn1ncc(Cl)c1-c1cc(C(=O)NC(CN)Cc2cccc(F)c2)sc1Cl (configuration not stated) + CC(Nc1ncnc2nc[nH]c12)c1cc2cccc(Cl)c2c(=O)n1-c1ccccc1 | 62.8
22 | Cn1nccc1Nc1nccc(-c2ccn(C(CO)c3ccc(Cl)c(F)c3)c(=O)c2)n1 (configuration not stated) + CC(Nc1ncnc2nc[nH]c12)c1cc2cccc(Cl)c2c(=O)n1-c1ccccc1 | 76.4

Same assay, conditions: second compound 10 µM; first compound 10 µM; stronger effect = lower value; spheroids with HUVEC and MSC

Row | Compound | viability, T/C [%]
23 | C#Cc1c(F)ccc2cc(O)cc(-c3ncc4c(N5CC6CCC(C5)N6)nc(OCC56CCCN5CC(F)C6)nc4c3F)c12 (configuration not stated) + CC(Nc1ncnc2nc[nH]c12)c1cc2cccc(Cl)c2c(=O)n1-c1ccccc1 | 31.8
24 | C=CC(=O)N1CCN(c2nc(=O)n(-c3c(C)ccnc3C(C)C)c3nc(-c4c(O)cccc4F)c(F)cc23)C(C)C1 (configuration not stated) + CC(Nc1ncnc2nc[nH]c12)c1cc2cccc(Cl)c2c(=O)n1-c1ccccc1 | 95.6
25 | CC(Cn1ccc(-c2ccc(C#N)c(Cl)c2)n1)NC(=O)c1cc(C(C)O)[nH]n1 (configuration not stated) + CC(Nc1ncnc2nc[nH]c12)c1cc2cccc(Cl)c2c(=O)n1-c1ccccc1 | 91.8
26 | Cn1ncc(Cl)c1-c1cc(C(=O)NC(CN)Cc2cccc(F)c2)sc1Cl (configuration not stated) + CC(Nc1ncnc2nc[nH]c12)c1cc2cccc(Cl)c2c(=O)n1-c1ccccc1 | 46.7
27 | Cn1nccc1Nc1nccc(-c2ccn(C(CO)c3ccc(Cl)c(F)c3)c(=O)c2)n1 (configuration not stated) + CC(Nc1ncnc2nc[nH]c12)c1cc2cccc(Cl)c2c(=O)n1-c1ccccc1 | 54.9
